Source: patent publication US20260191873A1, “FUSED AMINO PYRIMIDINE COMPOUNDS FOR TREATMENT OF 22q11.2 DELETION/DUPLICATION SYNDROMES” (Ovid Therapeutics Inc., priority 2024, published 2026)

Columns and labels:
KCC2 = target: T1, KCC2 (Homo sapiens, UniProt Q9H2X9); test: FLIPR Tl+ flux assay in HEK-293 cells expressing KCC2; type: cell-based; settings: saturating concentration of 3 μM, 1% BCD vehicle
T1 construct: expressed in transfected cells; host or cells: HEK-293 (ATCC CRL-1573)
T1 sequence (Q9H2X9 1-1116 isoform Q9H2X9-2): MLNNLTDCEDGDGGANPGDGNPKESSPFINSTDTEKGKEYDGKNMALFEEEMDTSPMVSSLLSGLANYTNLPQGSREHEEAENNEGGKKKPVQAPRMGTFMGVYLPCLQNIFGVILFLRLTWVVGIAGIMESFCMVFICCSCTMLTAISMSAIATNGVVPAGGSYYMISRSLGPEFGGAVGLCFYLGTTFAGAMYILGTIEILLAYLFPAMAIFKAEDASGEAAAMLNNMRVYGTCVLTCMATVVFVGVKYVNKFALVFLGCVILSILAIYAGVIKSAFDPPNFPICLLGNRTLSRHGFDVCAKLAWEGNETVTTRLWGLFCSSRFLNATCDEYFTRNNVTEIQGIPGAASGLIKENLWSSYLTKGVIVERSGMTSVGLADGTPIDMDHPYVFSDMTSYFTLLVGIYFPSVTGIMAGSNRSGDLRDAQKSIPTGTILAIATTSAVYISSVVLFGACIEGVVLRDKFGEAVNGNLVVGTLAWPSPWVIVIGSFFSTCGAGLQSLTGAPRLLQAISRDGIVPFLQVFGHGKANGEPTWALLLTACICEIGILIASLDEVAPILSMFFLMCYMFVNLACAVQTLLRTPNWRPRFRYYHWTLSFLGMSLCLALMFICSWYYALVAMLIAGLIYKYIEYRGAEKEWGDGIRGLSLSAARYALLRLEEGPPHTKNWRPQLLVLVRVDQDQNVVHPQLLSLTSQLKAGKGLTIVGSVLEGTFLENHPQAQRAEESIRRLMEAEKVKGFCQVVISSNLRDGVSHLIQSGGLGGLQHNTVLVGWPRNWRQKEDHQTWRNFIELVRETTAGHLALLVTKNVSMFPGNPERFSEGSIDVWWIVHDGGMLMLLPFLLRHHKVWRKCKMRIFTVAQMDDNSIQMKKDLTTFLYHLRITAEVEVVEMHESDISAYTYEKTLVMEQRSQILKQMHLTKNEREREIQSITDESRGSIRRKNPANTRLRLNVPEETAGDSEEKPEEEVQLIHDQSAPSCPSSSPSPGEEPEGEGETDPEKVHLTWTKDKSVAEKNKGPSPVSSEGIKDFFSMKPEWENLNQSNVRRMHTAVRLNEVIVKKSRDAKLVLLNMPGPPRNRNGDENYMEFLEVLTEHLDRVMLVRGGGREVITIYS
Protocol: A multi-tiered high-throughput screening assay was used, leveraging a proprietary library of 1.3 million small molecule compounds from AstraZeneca (Cambridge, UK) to identify chemical entities capable of activating KCC2. A single point concentration of 30 μM was used to identify potassium flux using an established thallium (TI+) influx FLIPR assay as the primary read out in HEK-293 cells overexpressing KCC2 (Cardarelli et al., Nat. Med. 23, 1394-1396 (2017); Conway et al., J Biol Chem 292, 21253-21263 (2017); Lee et al., 2022, supra).
Cell Culture and biotinylation. […]
FLIPR TI Flux assay. HEK-293 cells were washed with HBSS, and then incubated with loading buffer containing TI sensitive fluorescent dye (https://www.moleculardevices.com), 20 μM bumetanide 20 μM ouabain and 2.5 mM probenecid for 1 h at room temperature (RT) under control conditions or with drugs in the dark using a FlexStation 3 microplate reader (Molecular Devices) and imaged […] for 30 min. Stimulus buffer was added containing 5 mM K^+/0.5 mM Tl^+ and cells were imaged every 1.5 over a 190 second time course The initial rate Tl^+ uptake (Relative Fluorescence Units (RFU) per second) was determined following addition of the stimulus buffer as outlined previously (Conway et al., 2017, supra) (Lee et al., 2022, supra). […]

[1] = test system: panel of 144 protein kinases; test: Protein kinase panel (SelectScreen; Thermofisher); type: biochemical; settings: 144 protein kinases incl. PKC isoforms, OSR1, SPAK, WNK
Protocol: Aliquots of HEK-293 cells expressing KCC2 were exposed to 30 μM SSA, heated from 37-55° C. The remaining level of soluble native KCC2 at each temperature was measured by immunoblotting and normalized to the level seen at 37° C. which was given a value of 1. […] This panel included protein kinase C isoforms, OSR1, SPAK (STK39) and with-no-lysine kinases (WNK), all of which phosphorylate KCC2 on multiple residues to indirectly modify its activity (Kahle et al., 2013, supra; Smalley et al., 2020, supra).

KA induced SE [2] = test: Kainic acid (KA) induced SE, EEG, pretreatment; type: in vivo, mice; settings: Compound A pretreated, 2 h after KA, pre DZ; vehicle 4.2±2.4×10^−6
Source text: This model was chosen due to the similarities with patients undergoing SE, as KA-induced seizures become refractory to benzodiazepines (BDZs) within minutes (Betjemann and Lowenstein, Lancet Neurol 14, 615-624 (2015); Crawshaw and Cock, (2020a) [Seizure: Eur. J. Epilep. 75 (2020) 145-152] Seizure 80, 282; Lee et al., 2022, supra; Reddy and Kuruba, Int J Mol Sci 14, 18284-18318 (2013)).
EEG recordings and analysis. WT C57Bl/6J adult male mice (12 weeks) were anesthetized with isofluorane and implanted with EEG/EMG electrodes and allowed to recover for 7 days prior to experimentation. […] 2 h following KA administration mice were injected with a saturating concentration of diazepam (DZ) 10 mg/kg (IP) and recordings were extended for a further 60 min. […] LabChart 8 software was used for data analysis. […]
To provide quantitative insights on the effects of KA, raw EEG recordings were subject to Fast-Fourier transformation (8K FFT size, Hann (cosine-bell), 87.50% window overlap) for frequencies between 0-100 Hz 2 h after KA injection (Lee et al., 2022, supra). […]

KA induced SE [3] = test: KA induced SE, EEG, direct injection into the hippocampus; type: in vivo, mice; settings: injected into the hippocampus, DZ 2 h after KA
Protocol: 30 or 60 min later mice were injected with KA (20 mg/kg) and 2 h later with DZ as detailed above.

KA induced SE [4] = test: KA induced ongoing SE, EEG, treatment 2 h after KA; type: in vivo, mice
Protocol: EEG recordings and analysis. WT C57Bl/6J adult male mice (12 weeks) were anesthetized with isofluorane and implanted with EEG/EMG electrodes and allowed to recover for 7 days prior to experimentation. […] 2 h following KA administration mice were injected with a saturating concentration of diazepam (DZ) 10 mg/kg (IP) and recordings were extended for a further 60 min. […] LabChart 8 software was used for data analysis. Epileptiform activity was identified by changes in the amplitude of electrographic activity characterized by consistent changes in the power of the Fast Fourier transform (FFT) of the EEG and abnormal activity characterized by periods of rhythmic spiking lasting longer than 30 s (Moore et al., 2017, supra; Silayeva et al., 2015, supra; Sivakumaran et al., J. Neurosci. 35, 8291-8296 (2015)).
To evaluate the potential of KCC2 activators to terminate ongoing SE, the KA model described above was employed. Mice were injected with KA (20 mg/Kg; IP). […] Spectral data were then subjected to FFT and the total EEG power between 1-100 Hz of the 2 h following KA treatment (pre-drug) and 30 min following their injection (post-drug) were compared (FIG. 6B). In mice treated with DZ alone variable effects were observed, from large increases to modest reductions in EEG power, but these effects were not significant (FIG. 6C; pre=1.1±0.2×10^−6, post=4.4±7.4×10^−7 μV^2, p=0.214, n=13-14 mice). […]

Row | Structure (SMILES) | maximum potentiation (KCC2) | activity of kinase panel [1] | total EEG power (KA induced SE [2]) | effect of DZ on seizure parameters in pretreated mice (KA induced SE [3]) | DZ insensitivity (KA induced SE [4]; Compound A 50 mg/kg with DZ 10 mg/kg IP) | mice insensitive to the effects on EEG power (KA induced SE [4]; DZ 10 mg/kg IP 2 h after KA)
1 | C[C@@H]1CN(c2nc3c(c(Nc4ccc(C5CCCCC5)cc4)n2)COC3)CCO1 [Compound A, (R)—N-(4-cyclohexylphenyl)-2-(2-methylmorpholino)-5,7-dihydrofuro[3,4-d]pyrimidin-4-amine] | 90% | did not modify the activity | 6.9±3.2×10^−7 μV^2 | significantly reduced | abolished | 
2 | CN1C(=O)CN=C(c2ccccc2)c2cc(Cl)ccc21 [DZ, diazepam, reference compound] |  |  |  |  |  | 62%
